# From patent US20240009174A1, “METHODS FOR DISRUPTING MITOCHONDRIAL UNFOLDED PROTEIN RESPONSE” (Health Research, Inc., priority 2020, published 2024)
# What was measured:
# [1] = test system: PCa cells; assay: Colony forming ability of PCa cells; format: cell-based; settings: data not shown
# Protocol: (§1) Identification of novel inhibitor of HSP60-ClpP interaction that disrupts UPR^mt function and induces PCa cell death. Having shown that two arms of UPR^mt, HSP60 chaperonin and ClpP protease interact and play critical role in PCa cell survival, an in silico analysis was performed and a small molecule library (developed by Enamine Ltd) was screened to identify drugs targeting the apical domain of HSP60 critical for its interaction with ClpP. 9 compounds (A-I) were identified and screened for their cell death inducing potential in PCa cells (data not shown). […] Colony forming ability of PCa cells was inhibited by DCEM1 treatment (data not shown).
# [2] = test system: LNCaP and PC-3 cells; assay: AMPK and mTOR signaling pathways / autophagy activation; format: cell-based; settings: PCa cells
# Protocol: FIG. 7. Pharmacological inhibition of HSP60-ClpP interaction induces metabolic stress in PCa cells. (A) LNCaP and PC-3 cells were pre-treated with either rotenone or antimycin-A followed by DCEM1 treatment and mitochondrial ROS was analyzed as described in material and methods (data represented as fold change compared to control). In (A), the bars in each series from left to right are control, DCEM1, Rot+DCEM1, Anti A+DCEM1, Rot, and Anti A (B) ClpP protein was over-expressed in LNCaP and PC-3 cells followed by DCEM1 treatment and mitochondrial ROS was analyzed as described in material and methods (Data represented as fold change compared to control). In (B), the bars in each series from left to right are DMSO and DCEM1. (C) ClpP protein was over-expressed in LNCaP and PC-3 cells followed by DCEM1 treatment and level of poly-ubiquitinated protein was analyzed by western blotting. (D) ClpP protein was over-expressed in LNCaP and PC-3 cells followed by DCEM1 treatment and DEVDase activity was analyzed as described in material and methods (Data represented as fold change compared to control). In (D), the bars in each series from left to right are DMSO and DCEM1. (E) Mitochondrial membrane potential (mitoMP) was analyzed in LNCaP and PC-3 cells treated with DCEM1 as described in material and methods (Data represented as fold change compared to control). In (E), the bars in each series from left to right are DMSO, 5, and 10. (F) ATP level was analyzed in LNCaP and PC-3 cells treated with DCEM1 as described in material and methods (Data represented as fold change compared to control). In (F), the bars in each series from left to right are 0, 5, 10, and 20. (G) Oxygen consumption rate was analyzed in PC-3 cells treated with DCEM1 as described in material and methods and represented as basal and maximal respiration rate; Spare respiratory capacity and ATP production potential. […]
# Abrogation of HSP60-ClpP interaction by DCEM1 induces metabolic stress in PCa cells. […] Since ATP depletion/reduction induces autophagy, autophagy activation in PCa cells was analyzed in response to DCEM1 treatment.
# [3] = test system: TKO PCa cells; assay: mitoROS, mitoMass and apoptosis in TKO PCa cells; format: cell-based, mouse; settings: data not shown
# Protocol: as §1
smiles,measurement,setting,value
CCOc1cc(CNCc2nc3ccccc3[nH]2)ccc1OCc1cccs1 [DCEM1],colony forming ability of PCa cells,[1],inhibited
same,ULK1 phosphorylation,[2],enhanced phosphorylation at serine 555 residue and decreased phosphorylation at serine 757 residue
same,mTOR signaling,[2],inhibited mTOR signaling
same,p-AMPKa levels and LC3B cleavage,[2],Robust increase
same,mitoROS and mitoMass in TKO PCa cells,[3]; cells established from TKO mouse prostate tumor tissue,induced mitoROS and mitoMass
same,apoptotic cell death in TKO PCa cells,[3],induced robust apoptotic cell death
